Source: patent US20210087217A1, “NUCLEOTIDE HEMI-SULFATE SALT FOR THE TREATMENT OF HEPATITIS C VIRUS” (Atea Pharmaceuticals, Inc., priority 2017, published 2021)
Entries after “also recorded” stand apart in the source; their conditions may differ. Counter-ions that a name gives are not always drawn.

Assays:
[1] = Plasma levels of metabolites following single oral doses of Compound 2, monkeys; type: in vivo, monkey; conditions: for AUC(0-t) / Cmax / Tmax: monkey, plasma, po
[2] = Solubility in biorelevant test medias (water, SGF, FaSSIF, FeSSIF)
[3] = Single ascending dose study of Compound 2 in GT1-HCV infected patients (Part B): safety, tolerability, pharmacokinetic; type: in vivo, human
Procedure: Subjects in Part B received a single dose of Compound 2 in the fasting state. Patients were confined to the clinic from Day −1 to Day 6.
Part B was initiated after the safety (through Day 5) and plasma pharmacokinetic (through 24 h) data review from Cohort 3a in Part A. Available safety data (through Day 5) and pharmacokinetic data (through 24 h) was reviewed for the first cohort in Part B (Cohort 1b) before enrolling subsequent Part B cohorts. Subsequent Part B cohorts were only dosed following review of available safety and pharmacokinetic data from the respective doses in Part A as well as available safety (through Day 5) from the prior Part B cohorts.
Patients infected with HCV were treatment-naïve, non-cirrhotic GT1-infected subjects with a viral load of ≥5 log10 IU/mL.
Pharmacokinetic of Compound 1 and nucleoside metabolite 1-7 were measured following the single dose of Compound 2. […] Values are reported as mean±SD, except or Tmax where median (range) is reported.
Plasma exposure of Compound 1 was dose-related while exposure of metabolite 1-7 was dose-proportional.

[4] = Plasma profiles of Compound 2 metabolites in monkeys; type: in vivo, cynomolgus monkeys; conditions: monkeys, single oral 30, 100 or 300 mg/kg Compound 2
[5] = Plasma levels of metabolites following single oral dose of Compound 2, rats; type: in vivo, rat; conditions: single oral dose of Compound 2
[6] = Storage of Compound 1 forms and amorphous salts at 25° C./60% RH for 14 days (HPLC, XRPD, observation)
Procedure: This initial characterization was followed by storage at 25° C./60% relative humidity (RH) for 14 days with analysis by […] and XRPD after 7 and 14 days. FIG. 4A is the XRPD after 14 days at 25° C./60% (RH).
The samples were then frozen with the solvent removed by lyophilization.
The samples were then subjected to storage at 25° C./60% relative humidity (RH) for 14 days with analysis by HPLC and XRPD after 7 (FIG. 4B) and 14 days (FIG. 5A).

[7] = Plasma profiles of Compound 2 metabolites in rats; conditions: rats, single oral dose of Compound 2
Procedure: The results for a single 500 mg/kg dose in rats is shown in FIG. 17 and the results for a single 30, 100, or 300 mg/kg dose in monkeys is shown in FIG. 18.

[8] = Heart and liver tissue levels of active triphosphate 4 hours after oral Compound 2, dogs; type: in vivo, dog; conditions: 4 hours after oral dose of Compound 2
Procedure: (§1) High levels of the active TP were measured in the liver of all species tested.

[9] = Head-to-head comparison of plasma levels in dogs dosed with Compound 1 and Compound 2; type: in vivo, dog; conditions: dosed Compound 1 25 mg/kg or Compound 2 30 mg/kg, normalized to a dose of 25 mg/kg
Procedure: A head-to-head comparison of dogs dosed with Compound 1 and Compound 2 was conducted.

[10] = Stability under refrigerator conditions (5 ± 3° C.) of Compound 2; type: physicochemical
Procedure: Three conditions were tested: accelerated stability (40 2° C./75±5% RH) over a 6-month time period, ambient stability (25±2° C./60±5% RH) over a 9-month period, and stability under refrigerator conditions (5 3° C.) over a 9-month time period. The results for accelerated stability, ambient stability, and refrigerator conditions are shown in Table 23, Table 24, and Table 25, respectively.
The only impurities detected even after 9 months were those from related substance 1 and water.

[11] = Heart and liver tissue levels of active triphosphate 4 hours after oral Compound 2, rats; type: in vivo, rat; conditions: 4 hours after oral dose of Compound 2
Procedure: as §1

HCV RNA (GT1-HCV) = assay: Plasma HCV RNA reduction in GT1-HCV infected patients (Part B); type: in vivo
Procedure: Plasma HCV RNA determinations were performed through the use of a validated commercial assay. Baseline was defined as the mean of Day −1 and Day 1 (pre-dose). […] The mean maximum HCV RNA reduction 24 hours post-dose following a single 300 mg dose was 1.7 log10 IU/mL and this compares to a-2 log10 IU/mL reduction after 1 day of 400 mg of sofosbuvir monotherapy in GT1a HCV-infected subjects. The mean maximum HCV RNA reduction 24 hours post-dose following a single 100 mg dose was 0.8 log10 IU/mL. The mean maximum HCV RNA reduction was 2.2 log10 IU/mL following a single 400 mg dose.

[12] = Part B, GT1-HCV infected patients

CNc1nc(N)nc2c1ncn2[C@@H]1O[C@H](CO[P@@](=O)(N[C@@H](C)C(=O)OC(C)C)Oc2ccccc2)[C@@H](O)[C@@]1(C)F [Compound 2, hemi-sulfate salt of isopropyl((S)-(((2R,3R,4R,5R)-5-(2-amino-6-(methylamino)-9H-purin-9-yl)-4-fluoro-3-hydroxy-4-methyltetrahydrofuran-2-yl)methoxy)(phenoxy)phosphoryl)-L-alaninate]
AUC(0-t) ([1]; 30 mg/kg): 176 ng·h/mL
Cmax ([1]; 30 mg/kg): 63.5 ng/mL
Tmax ([1]; 30 mg/kg): 0.5 to 2 h
AUC(0-t) ([1]; 100 mg/kg): 1100 ng·h/mL
Cmax ([1]; 100 mg/kg): 783 ng/mL
Tmax ([1]; 100 mg/kg): 1 to 2 h
AUC(0-t) ([1]; 300 mg/kg): 1600 ng·h/mL
Cmax ([1]; 300 mg/kg): 501 ng/mL
Tmax ([1]; 300 mg/kg): 204 h
Vomiting (animals affected) ([1]; monkeys, high dose group): 1/5
Dose proportionality of Compound 1 exposures ([1]; monkeys, single oral doses of Compound 2): roughly dose-proportional
Appearance in solubility test ([2]; FaSSIF): Turbid
Solubility descriptive term ([2]; FaSSIF): Slightly
Appearance in solubility test ([2]; FeSSIF): Turbid
Solubility descriptive term ([2]; FeSSIF): Slightly
Appearance in solubility test ([2]; SGF): Turbid
Solubility descriptive term ([2]; SGF): Soluble
Appearance in solubility test ([2]; Water): Turbid
Solubility descriptive term ([2]; Water): Soluble
Times more soluble in water compared to Compound 1 ([2]; Water): up to 43 times
Times more soluble than Compound 1 under SGF conditions ([2]; simulated gastric fluid (SGF)): over 6 times
Intensity of adverse effects [3, 12]: mild to moderate
Serious adverse events [3, 12]: No serious adverse events
Time within which Compound 1 was absorbed and metabolized ([3]; all cohorts from Part B, single dose of Compound 2): ≤ 8 h
Tolerability ([3]; hepatitis C infected patients, single oral dose): well tolerated
Plasma exposure of Compound 1 versus dose ([3]; single dose of Compound 2): dose-related
Plasma exposure of metabolite 1-7 versus dose ([3]; single dose of Compound 2): mostly dose-proportional
Dose proportionality of metabolite 1-7 exposures [4]: somewhat less than dose-proportional
Dose proportionality of plasma exposures (AUC) of Compound 1 [4]: roughly dose-proportional
Compound 1 exposure [5]: low levels
Metabolite 1-7 levels [5]: high levels
Hygroscopicity [6]: not hydroscopic; also recorded: non-hygroscopic
Physical/chemical stability and appearance on storage ([6]; 25° C./60% RH, 14 days): stable white solid
Plasma levels of parent nucleotide prodrug [7]: very low plasma levels
Active TP (metabolite 1-6) level in heart [8]: Relatively low levels
Active TP (metabolite 1-6) level in liver [8]: High levels
Mean Dose-normalized AUC(0-4hr) for Compound 1 [9]: 1.0 µM·h
Total impurities of related substance 1 ([10]; 5° C., after 9 months): 0.01%
Water content ([10]; 5° C., after 9 months): 0.32%
Appearance ([10]; 5 ± 3° C., 0 month): White
Assay ([10]; 5 ± 3° C., 0 month): 98.8%
IR ([10]; 5 ± 3° C., 0 month): correspond
Related Substance 1 Any other single impurity ([10]; 5 ± 3° C., 0 month): 0.01%
Related Substance 1 Total Impurities ([10]; 5 ± 3° C., 0 month): 0.01%
Water ([10]; 5 ± 3° C., 0 month): 0.45%
Appearance ([10]; 5 ± 3° C., 1st month): White
Assay ([10]; 5 ± 3° C., 1st month): 101.1%
Related Substance 1 Any other single impurity ([10]; 5 ± 3° C., 1st month): 0.01%
Related Substance 1 Total Impurities ([10]; 5 ± 3° C., 1st month): 0.01%
Water ([10]; 5 ± 3° C., 1st month): 0.19%
Appearance ([10]; 5 ± 3° C., 3rd month): White
Assay ([10]; 5 ± 3° C., 3rd month): 100.2%
IR ([10]; 5 ± 3° C., 3rd month): correspond
Related Substance 1 Any other single impurity ([10]; 5 ± 3° C., 3rd month): 0.01%
Related Substance 1 Impurity B ([10]; 5 ± 3° C., 3rd month): 0.01%
Related Substance 1 Total Impurities ([10]; 5 ± 3° C., 3rd month): 0.03%
Water ([10]; 5 ± 3° C., 3rd month): 0.32%
Appearance ([10]; 5 ± 3° C., 6th month): White
Assay ([10]; 5 ± 3° C., 6th month): 98.6%
IR ([10]; 5 ± 3° C., 6th month): correspond
Related Substance 1 Any other single impurity ([10]; 5 ± 3° C., 6th month): 0.01%
Related Substance 1 Total Impurities ([10]; 5 ± 3° C., 6th month): 0.03%
Water ([10]; 5 ± 3° C., 6th month): 0.42%
Appearance ([10]; 5 ± 3° C., 9th month): Off-white
Assay ([10]; 5 ± 3° C., 9th month): 101.4%
IR ([10]; 5 ± 3° C., 9th month): correspond
Related Substance 1 Any other single impurity ([10]; 5 ± 3° C., 9th month): 0.01%
Related Substance 1 Total Impurities ([10]; 5 ± 3° C., 9th month): 0.01%
Water ([10]; 5 ± 3° C., 9th month): 0.32%
Stability ([10]; refrigerator conditions (5° C.), 9 months): very chemically stable; also recorded: stable
Active TP (metabolite 1-6) level in heart [11]: unquantifiable levels
Active TP (metabolite 1-6) level in liver [11]: High levels
Mean maximum HCV RNA reduction (HCV RNA (GT1-HCV); 24 hours post-dose, single 100 mg dose): 0.8 log10 IU/mL
Mean maximum HCV RNA reduction (HCV RNA (GT1-HCV); 24 hours post-dose, single 300 mg dose): 1.7 log10 IU/mL
Mean maximum HCV RNA reduction (HCV RNA (GT1-HCV); single 400 mg dose): 2.2 log10 IU/mL
